Experimental data from US20040048860A1, “Use of selective noradrenaline reuptake inhibitors for the treatment of tension-type headache” (priority 2000, published 2004).
“Also recorded” adds a separate entry of the source. Where two headings read alike, the source gives them in different places.

Experiments:
[1] = tested on: chronic tension-type headache; settings: prophylactic; cited from earlier work
[2] = tested on: chronic tension-type headache; assay: Prophylactic treatment with reboxetine in patients with chronic tension-type headache (headache diary); format: in vivo, human
Description: Prophylactic treatment with reboxetine has been given to 10 patients with chronic tension-type headache treated at the outpatient headache clinic at the Department of Neurology, Glostrup Hospital, University of Copenhagen, Denmark. There were 5 women and 5 men with a mean age of 44 years. All patients had been suffering from chronic tension-type headache for several years, and had been treatment resistant to other headache prophylactics. Before treatment, the patents underwent a general and a neurological examination and completed a diagnostic headache diary during a four-week run-in period.
The patients filled in a headache diary before and during treatment recording headache characteristics, accompanying symptoms and intake of analgesics.
In total, 10 patents have been treated with reboxetne (as the methanesulphonate salt). […] The patents were instructed to take the tablet two to three hours before bedtime. Four patients stopped treatment within the first 4 weeks due to side effects. […] Efficacy was estimated to be very good in 66% of the patients that fulfilled the treatment series.

[3] = patients with chronic tension-type headache, 4 mg to 8 mg once daily, headache diary

CN(C)CCC=C1c2ccccc2CCc2ccccc21 [Amitriptyline]
reduces headache [1]: 30%
side effects [1]: many side effects, such as sedation and dryness of mouth

CCOc1ccccc1OC(c1ccccc1)C1CNCCO1 (stereo not drawn) [reboxetne, 2-[α-(2-ethoxy)-phenoxy-benzyl]morpholine]
Efficacy estimated to be very good, share of the patients that fulfilled the treatment series ([2]; 6 patients that completed the treatment series): 66%
side effects ([2]; 10 patients treated, 4 mg to 8 mg once daily): Sleeping problems and dizziness were the most common side effect; also recorded: No serious side effects were reported
reduction in consumption of analgesics [2, 3]: 55%
reduction in intensity [2, 3]: 78%
reduction of AUC (intensity×duration) [2, 3]: 47%
Headache frequency reduced ([2]; patients with chronic tension-type headache, initial dose 4 mg once daily, final dose 8 mg once daily, headache diary before vs during treatment): 10%
patients that stopped treatment due to side effects ([2]; within the first 4 weeks, 10 patients treated): Four
